Results as given in patent US4659726A, “Novel 4,5-Bis (4-methoxyphenyl)-2-(pyrrol-2-yl) thiazoles and pharmaceutical composition containing the same” (Kanebo, Ltd., priority 1984, dated 1987).

Key:
[1] = in vivo; settings: mouse, oral, ddy male mice, deaths counted at 10 days, Weil method, read-out: Acute toxicity LD50
Description: ddy male mice (weighing 18-23 g, one group: 5 animals) were fasted overnight, and thereto was orally administered a suspension of the test compounds in 1% arabic gum solution.

[2] = test system: Platelet aggregation (arachidonate); assay: Platelet aggregation inhibitory activity, ex vivo after oral administration to guinea pigs, sodium arachidonate as aggregating agent; format: in vivo, Hartley strain male guinea pigs; settings: Cavia porcellus, oral, guinea pig, blood collected after 3 hours, 1.0 mM sodium arachidonate (50 μl), 50% inhibitory rate, read-out: Platelet aggregation inhibitory activity Arachidonate ED50
Protocol: (§1) Hartley strain male guinea pigs (weighing 300-350 g, one group: three animals) were fasted overnight, and to the animals were orally administered a solution or suspension of the test compounds in corn oil-10% arabic gum. […] The citrated blood thus obtained was centrifuged at 1,700 rpm for 10 minutes, and a platelet-rich plasma (PRP) was obtained from the supernatant. After isolating PRP, the remaining blood was further centrifuged at 3,000 rpm for 10 minutes, and a platelet-poor plasma (PPP) was obtained from the supernatant.
(§2) The PRP (450 μl) thus obtained was incubated at 37° C. for 3 minutes, and thereto was added 1.0 mM sodium arachidonate (50 μl) as an aggregating agent, and then the platelet aggregation thereof was measured with Platelet Aggregation Profiler® (Model PAP-3, manufactured by Bio Data Corp.) while using the PPP obtained above as a blank. As a control, as to animals to which no test compound was administered, the platelet aggregation rate was measured likewise.
(§3) The platelet aggregation inhibitory rate was calculated by the following equation. [formula]

[3] = test system: Platelet aggregation (collagen); assay: Platelet aggregation inhibitory activity, ex vivo after oral administration to guinea pigs, collagen as aggregating agent; format: in vivo, Hartley strain male guinea pigs; settings: Cavia porcellus, oral, guinea pig, blood collected after 3 hours, 100 μg/ml collagen suspension (50 μl), 50% inhibitory rate, read-out: Platelet aggregation inhibitory activity Collagen ED50
Protocol: as §1, §2, §3
Moreover, the above method was repeated except that 100 μg/ml collagen suspension (50 μl) was used as an aggregating agent instead of sodium arachidonate.

Row | SMILES | LD50 at 240 h [1] [mg/kg] | ED50 [2] [mg/kg] | ED50 [3] [mg/kg]
1 | CCCCCCCCOC(=O)Cn1cccc1-c1nc(-c2ccc(OC)cc2)c(-c2ccc(OC)cc2)s1 [Ex. 28, n-octyl 2-[4,5-bis(4-methoxyphenyl)thiazol-2-yl]pyrrole-1-acetate] | > 3000 | 0.39 | 0.44
2 | C=CCOC(=O)Cn1cccc1-c1nc(-c2ccc(OC)cc2)c(-c2ccc(OC)cc2)s1 [Ex. 29, allyl 2-[4,5-bis(4-methoxyphenyl)thiazol-2-yl]pyrrole-1-acetate] | > 3000 | 0.047 | 0.11
3 | C#CCOC(=O)Cn1cccc1-c1nc(-c2ccc(OC)cc2)c(-c2ccc(OC)cc2)s1 [Ex. 30, Propargyl 2-[4,5-bis(4-methoxyphenyl)thiazol-2-yl]pyrrole-1-acetate] | > 3000 | 0.039 | 0.068
4 | COc1ccc(-c2nc(-c3cccn3CC(=O)OCc3ccccc3)sc2-c2ccc(OC)cc2)cc1 [Ex. 31, benzyl 2-[4,5-bis(4-methoxyphenyl)thiazol-2-yl]pyrrole-1-acetate] | > 3000 | 0.11 | 0.16
5 | CCOCn1cccc1-c1nc(-c2ccc(OC)cc2)c(-c2ccc(OC)cc2)s1 [Ex. 36, 4,5-Bis(4-methoxyphenyl)-2-(1-ethoxymethylpyrrol-2-yl)thiazole] | > 3000 | 0.45 | 0.98
6 | CCCOCn1cccc1-c1nc(-c2ccc(OC)cc2)c(-c2ccc(OC)cc2)s1 [Ex. 37, 4,5-Bis(4-methoxyphenyl)-2-(1-n-propoxymethylpyrrol-2-yl)thiazole] | > 3000 | 0.49 | 0.61
7 | CCOCCn1cccc1-c1nc(-c2ccc(OC)cc2)c(-c2ccc(OC)cc2)s1 [Ex. 38, 4,5-bis(4-methoxyphenyl)-2-[1-(2-ethoxyethyl)pyrrol-2-yl]thiazole] | > 3000 | 0.09 | 0.29
8 | C=COCCn1cccc1-c1nc(-c2ccc(OC)cc2)c(-c2ccc(OC)cc2)s1 [Ex. 39, 4,5-bis(4-methoxyphenyl)-2-[1-(2-vinyloxyethyl)pyrrol-2-yl]thiazole] | > 3000 | 0.33 | 0.49
9 | CCSCCn1cccc1-c1nc(-c2ccc(OC)cc2)c(-c2ccc(OC)cc2)s1 [Ex. 40, 4,5-bis(4-methoxyphenyl)-2-[1-(2-ethylthioethyl)pyrrol-2-yl]thiazole] | > 3000 | 0.41 | 0.51
10 | CCOCCCn1cccc1-c1nc(-c2ccc(OC)cc2)c(-c2ccc(OC)cc2)s1 [Ex. 41, 4,5-bis(4-methoxyphenyl)-2-[1-(3-ethoxypropyl)pyrrol-2-yl]thiazole] | > 3000 | 0.3 | 0.35
